B1: IL-12 β-chain (p40), carboxyterminally hexahistidine-tagged (HIBERNIA.1 cells, pIND(SP1)-p40H) (ligand)
chain: IWELKKDVYVVELDWYPDAPGEMVVLTCDTPEEDGITWTLDQSSEVLGSGKTLTIQVKEFGDAGQYTCHKGGEVLSHSLLLLHKKEDGIWSTDILKDQKEPKNKTFLRCEAKNYSGRFTCWWLTTISTDLTFSVKSSRGSSDPQGVTCGAATLSAERVRGDNKEYEYSVECQEDSACPAAEESLPIEVMVDAVHKLKYENYTSSFFIRDIIKPDPPKNLQLKPLKNSRQVEVSWEYPDTWSTPHSYFSLTFCVQVQGKSKREKKDRVFTDKTSATVICRKNASISVRAQDRYYSSSWSEWASVPCSHHHHHH
notes: mature; Secreted by HIBERNIA.1 cells as a monomer (about 40 kD) and as a disulfide-bonded homodimer (about 80 kD); also called β chain homodimer (80 kD form)
B2: IL-12 α-chain (p35), carboxyterminal hexahistidine-tagged (ligand)
chain: RNLPVATPDPGMFPCLHHSQNLLRAVSNMLQKARQTLEFYPCTSEEIDHEDITKDKTSTVEACLPLELTKNESCLNSRETSFITNGSCLASRKTSFMMALCLSSIYEDLKMYQVEFKTMNAKLLMDPKRQIFLDQNMLAVIDELMQALNFNSETVPQKSSLEEPDFYKTKIKLCILLHAFRIRAVTIDRVMSYLNASHHHHHH
notes: mature; Expressed in EcR293 or HIBERNIA.1 cells from pIND-p35H or pIND(SP1)-p35H; N-glycosylated; also called p35H; His-tagged α-chain

Legend:
[1] = tested on: IL-12 α and β monomer forms; experiment: Inhibitor assay: secretion of IL-12 α and β monomer forms; settings: 16 hr treatment
EcR293 cells = experiment: MTT cytotoxicity test; format: cell-based, human
Experimental: The mitochondrial ...MTT test is widely use as a cytotoxicity test. This test is principally based on the propensity of mitochondrial dehydrogenases to cleave the tetrazolium ring of. The viability of cells is proportional to the activity of mitochondrial dehydrogenases. Cleavage of the tetrazolium ring results in the formation of purple formazan crystals. We used the MTT assay to quantify cytotoxicity of celecoxib on EcR293 cells. The test was performed in 96-well plates in which 10^5 cells per well were plated the day before application of the MTT test. Following addition of celecoxib to the culture medium, cells were induced by ponasterone A, as explained before. After 16 hours of induction, the MTT reagent (10 μl of 100 mg/ml stock solution) was added to the cells. Two hours later, the medium was removed, and the cells were dissolved in DMSO. DMSO solubilizes formazan crystals. Absorbance was measured at 550 nm using a 96-well plate spectrophotometer.

mRNA of IL-12 = experiment: Effect on IL-12 mRNA; format: cell-based, human
[2] = target: the molecule itself; experiment: non-reducing SDS-PAGE and anti-β-chain immunoblot of secreted fraction
[3] = target: B1; experiment: co-expression; non-reducing and reducing SDS-PAGE with anti-α-chain and anti-β-chain immunoblots
[4] = target: the molecule itself; experiment: non-reducing SDS-PAGE of medium of recombinant cell lines secreting the α chain

Molecule: CNc1ccc2oc(C[C@H]3O[C@@]4(CC[C@H]3C)O[C@H]([C@H](C)C(=O)c3ccc[nH]3)[C@H](C)C[C@H]4C)nc2c1C(=O)O [A23187]
- secretion of IL-12 α and β monomer forms [1]: suppressed by neither
- concentration at which toxicity was observed (MTT test) (EcR293 cells; 16 hr test period): > 10 µM

Molecule: Cc1ccc(-c2cc(C(F)(F)F)nn2-c2ccc(S(N)(=O)=O)cc2)cc1 [Celecoxib, 4-[5-(4-methylpheny)-3-(trifluoromethyl)-IH-pyrazol-I-yl]benzenesulfonamide]
- effect on mRNA of IL-12 (mRNA of IL-12): no effect
- concentration at which toxicity was observed (MTT test) (EcR293 cells; human, 16 h): ≥ 100 µM

Molecule: C/C=C(/C)C(=O)O[C@H]1C(C)=C2[C@H]([C@@H]1OC(=O)CCCCCCC)[C@@](C)(OC(C)=O)C[C@H](OC(=O)CCC)[C@@]1(O)[C@H]2OC(=O)[C@@]1(C)O [thapsigargin]
- secretion of IL-12 α and β monomer forms [1]: suppressed by neither
- concentration at which toxicity was observed (MTT test) (EcR293 cells; human, 16 h): 5 to 10 µM

Molecule: B1
- binding result [2]: binds

Molecule: B2
- binding result [3]: binds
- binding result [4]: no binding
